Results taken from US20250313548A1 (Actio Biosciences, Inc., priority 2023, published 2025).
pIC50: −log10 of the molar value.

These compounds were tested against human, KCNT1 (Homo sapiens (Human), UniProt Q5JUK3) (assay: FLIPR Tl/K Flux Assay). Conditions: HEK293 cells stably expressing human KCNT1; Tl+ flux stimulated with EC80 of agonist Loxapine.
Assay type: cell-based
Outline: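 Inhibition values come from a Hill-equation fit of % inhibition versus log concentration, using normalized fluorescence (Fmax/Fmin) over a 160 s read. The read followed stimulation with Tl+ plus EC80 agonist loxapine after 30 min compound pre-incubation at 25 °C. Cells were KCNT1-expressing HEK293, dye-loaded 1 h in pH 7.4 HEPES/HBSS with 5 mM probenecid.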

Sequence of human, KCNT1 (Q5JUK3 whole entry): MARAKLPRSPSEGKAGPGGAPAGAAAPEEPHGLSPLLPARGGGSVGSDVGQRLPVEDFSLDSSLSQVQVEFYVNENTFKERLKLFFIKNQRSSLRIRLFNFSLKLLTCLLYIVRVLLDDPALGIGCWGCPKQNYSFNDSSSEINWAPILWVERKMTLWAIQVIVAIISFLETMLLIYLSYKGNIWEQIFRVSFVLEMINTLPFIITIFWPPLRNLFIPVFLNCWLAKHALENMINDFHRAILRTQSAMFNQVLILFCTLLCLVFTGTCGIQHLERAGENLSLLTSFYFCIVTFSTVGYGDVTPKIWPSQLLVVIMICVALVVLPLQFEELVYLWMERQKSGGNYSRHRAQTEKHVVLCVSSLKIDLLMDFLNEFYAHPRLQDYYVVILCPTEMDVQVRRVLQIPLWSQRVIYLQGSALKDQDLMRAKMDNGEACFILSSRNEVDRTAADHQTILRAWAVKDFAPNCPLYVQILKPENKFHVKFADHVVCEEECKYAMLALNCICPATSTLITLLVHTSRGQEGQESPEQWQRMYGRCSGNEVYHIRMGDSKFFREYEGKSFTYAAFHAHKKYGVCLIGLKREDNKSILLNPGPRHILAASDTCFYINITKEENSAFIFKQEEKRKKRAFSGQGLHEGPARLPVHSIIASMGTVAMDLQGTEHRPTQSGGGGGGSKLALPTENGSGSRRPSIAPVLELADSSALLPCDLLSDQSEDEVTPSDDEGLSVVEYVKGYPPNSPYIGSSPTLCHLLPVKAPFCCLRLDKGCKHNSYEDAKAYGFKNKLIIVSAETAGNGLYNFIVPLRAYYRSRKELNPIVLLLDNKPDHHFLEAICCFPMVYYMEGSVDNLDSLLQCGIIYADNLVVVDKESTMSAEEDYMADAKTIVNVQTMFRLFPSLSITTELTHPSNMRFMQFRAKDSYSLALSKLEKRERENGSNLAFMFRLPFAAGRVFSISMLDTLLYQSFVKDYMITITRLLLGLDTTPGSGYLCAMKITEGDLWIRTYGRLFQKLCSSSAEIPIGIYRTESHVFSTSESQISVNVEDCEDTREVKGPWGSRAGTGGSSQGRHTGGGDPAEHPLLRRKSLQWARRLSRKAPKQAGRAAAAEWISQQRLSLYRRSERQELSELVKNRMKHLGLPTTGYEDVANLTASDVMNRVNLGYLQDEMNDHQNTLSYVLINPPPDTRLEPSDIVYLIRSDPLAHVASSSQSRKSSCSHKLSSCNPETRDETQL

Row | SMILES | pIC50
1 | COC12CC(C(=O)N[C@H]3CCn4nc(-c5cc(C(F)(F)F)ncc5F)cc43)(C1)C2 [Compound I-525a, (S)-N-(2-(5-Fluoro-2-(trifluoromethyl)pyridin-4-yl)-5,6-dihydro-4H-pyrrolo[1,2-b]pyrazol-4-yl)-3-methoxybicyclo[1.1.1]pentane-1-carboxamide] | > 6.60
2 | CC(F)(F)c1cc(C(=O)N[C@H]2CCn3nc(-c4ccnc(C(F)(F)F)c4)cc32)ccn1 [Compound I-528a, (S)-2-(1,1-Difluoroethyl)-N-(2-(2-(trifluoromethyl)pyridin-4-yl)-5,6-dihydro-4H-pyrrolo[1,2-b]pyrazol-4-yl)isonicotinamide] | > 6.60
3 | O=C(N[C@H]1CCCn2nc(-c3ccnc(C(F)(F)F)c3)cc21)c1cnn(C(F)(F)F)c1C(F)(F)F [Compound I-529a, (S)-1,5-bis(trifluoromethyl)-N-(2-(2-(trifluoromethyl)pyridin-4-yl)-4,5,6,7-tetrahydropyrazolo[1,5-a]pyridin-4-yl)-1H-pyrazole-4-carboxamide] | > 6.60
4 | O=C(N[C@H]1CCCc2oc(-c3ccnc(C4CC4)c3)nc21)c1cnn(C(F)(F)F)c1C(F)(F)F [Compound I-530a, (S)—N-(2-(2-cyclopropylpyridin-4-yl)-4,5,6,7-tetrahydrobenzo[d]oxazol-4-yl)-1,5-bis(trifluoromethyl)-1H-pyrazole-4-carboxamide] | > 6.60
5 | CC(F)(F)c1cc(-c2nc3c(o2)CCC[C@@H]3NC(=O)c2cncc(C(F)(F)F)c2)ccn1 [Compound I-533a, (S)—N-(2-(2-(1,1-Difluoroethyl)pyridin-4-yl)-4,5,6,7-tetrahydrobenzo[d]oxazol-4-yl)-5-(trifluoromethyl)nicotinamide] | > 6.60
6 | O=C(N[C@H]1CCn2nc(-c3cc(C(F)(F)F)ncc3F)cc21)C12CC(CF)(C1)C2 [Compound I-540a, (S)-N-(2-(5-Fluoro-2-(trifluoromethyl)pyridin-4-yl)-5,6-dihydro-4H-pyrrolo[1,2-b]pyrazol-4-yl)-3-(fluoromethyl)bicyclo[1.1.1]pentane-1-carboxamide] | > 6.60
7 | O=C(N[C@H]1CCn2nc(-c3ccnc(C4CC4)c3)cc21)c1ccnc(OC(F)(F)F)c1 [Compound I-543a, (S)-N-(2-(2-Cyclopropylpyridin-4-yl)-5,6-dihydro-4H-pyrrolo[1,2-b]pyrazol-4-yl)-2-(trifluoromethoxy)isonicotinamide] | > 6.60
8 | CC(C)Oc1cc(C(=O)N[C@H]2CCn3nc(-c4cc(C(F)(F)F)ncc4F)cc32)ccn1 [Compound I-546a, (S)-N-(2-(5-Fluoro-2-(trifluoromethyl)pyridin-4-yl)-5,6-dihydro-4H-pyrrolo[1,2-b]pyrazol-4-yl)-2-isopropoxyisonicotinamide] | > 6.60
9 | Cn1nc(C(F)(F)F)nc1C(=O)N[C@H]1CCn2nc(-c3cc(C(F)(F)F)ncc3F)cc21 [Compound I-548a, (S)—N-(2-(5-Fluoro-2-(trifluoromethyl)pyridin-4-yl)-5,6-dihydro-4H-pyrrolo[1,2-b]pyrazol-4-yl)-1-methyl-3-(trifluoromethyl)-1H-1,2,4-triazole-5-carboxamide] | > 6.60
10 | O=C(N[C@H]1CCn2nc(-c3ccnc(C(F)(F)F)c3)cc21)c1ccn2nccc2c1 [Compound I-550a, (S)-N-(2-(2-(Trifluoromethyl)pyridin-4-yl)-5,6-dihydro-4H-pyrrolo[1,2-b]pyrazol-4-yl)pyrazolo[1,5-a]pyridine-5-carboxamide] | > 6.60
11 | Cn1nc(C(F)(F)F)nc1C(=O)N[C@H]1CCCn2nc(-c3ccnc(C(C)(F)F)c3)cc21 [Compound I-551a, (S)-N-(2-(2-(1,1-Difluoroethyl)pyridin-4-yl)-4,5,6,7-tetrahydropyrazolo[1,5-a]pyridin-4-yl)-1-methyl-3-(trifluoromethyl)-1H-1,2,4-triazole-5-carboxamide] | > 6.60
12 | O=C(N[C@H]1CCn2nc(-c3cc(C(F)(F)F)ncc3F)cc21)C12CC(F)(C1)C2 [Compound I-552a, (S)-3-Fluoro-N-(2-(5-fluoro-2-(trifluoromethyl)pyridin-4-yl)-5,6-dihydro-4H-pyrrolo[1,2-b]pyrazol-4-yl)bicyclo[1.1.1]pentane-1-carboxamide] | > 6.60
13 | O=C(N[C@H]1CCc2nn(-c3ccnc(C(F)(F)F)c3)cc21)C12CC(C(F)(F)F)(C1)C2 [Compound I-553a, (S)-3-(Trifluoromethyl)-N-(2-(2-(trifluoromethyl)pyridin-4-yl)-2,4,5,6-tetrahydrocyclopenta[c]pyrazol-4-yl)bicyclo[1.1.1]pentane-1-carboxamide] | > 6.60
14 | O=C(N[C@H]1CCCc2oc(-c3cc(C(F)(F)F)ncc3F)nc21)c1cccc(C(F)(F)F)c1 [Compound I-554a, (S)—N-(2-(5-Fluoro-2-(trifluoromethyl)pyridin-4-yl)-4,5,6,7-tetrahydrobenzo[d]oxazol-4-yl)-3-(trifluoromethyl)benzamide] | > 6.60
15 | Cc1nn(C(F)(F)F)cc1C(=O)N[C@H]1CCn2nc(-c3ccnc(C4CC4)c3)cc21 [Compound I-555a, (S)-N-(2-(2-Cyclopropylpyridin-4-yl)-5,6-dihydro-4H-pyrrolo[1,2-b]pyrazol-4-yl)-3-methyl-1-(trifluoromethyl)-1H-pyrazole-4-carboxamide] | > 6.60

Second part, the compound after the results:

Row | pIC50 | SMILES
16 | > 6.60 | CC12CC(C(=O)N[C@H]3CCn4nc(-c5cc(C(F)(F)F)ncc5F)cc43)(C1)C2 [Compound I-524a, (S)-N-(2-(5-Fluoro-2-(trifluoromethyl)pyridin-4-yl)-5,6-dihydro-4H-pyrrolo[1,2-b]pyrazol-4-yl)-3-methylbicyclo[1.1.1]pentane-1-carboxamide]
17 | > 6.60 | CC(F)(F)C12CC(C(=O)N[C@H]3CCn4nc(-c5cc(C(F)(F)F)ncc5F)cc43)(C1)C2 [Compound I-526a, (S)-3-(1,1-Difluoroethyl)-N-(2-(5-fluoro-2-(trifluoromethyl)pyridin-4-yl)-5,6-dihydro-4H-pyrrolo[1,2-b]pyrazol-4-yl)bicyclo[1.1.1]pentane-1-carboxamide]
18 | > 6.60 | O=C(N[C@H]1CCn2nc(-c3cc(C(F)(F)F)ncc3F)cc21)C12CC(C(F)F)(C1)C2 [Compound I-527a, (S)-3-(Difluoromethyl)-N-(2-(5-fluoro-2-(trifluoromethyl)pyridin-4-yl)-5,6-dihydro-4H-pyrrolo[1,2-b]pyrazol-4-yl)bicyclo[1.1.1]pentane-1-carboxamide]
19 | > 6.60 | O=C(N[C@H]1CCCc2oc(-c3ccnc(C(F)(F)F)c3)nc21)c1cnn(C(F)(F)F)c1C(F)(F)F [Compound I-531a, (S)-1,5-bis(trifluoromethyl)-N-(2-(2-(trifluoromethyl)pyridin-4-yl)-4,5,6,7-tetrahydrobenzo[d]oxazol-4-yl)-1H-pyrazole-4-carboxamide]
20 | > 6.60 | O=C(N[C@H]1CCn2nc(-c3ccnc(C(F)(F)F)c3)cc21)c1cnn(C(F)(F)F)c1C(F)(F)F [Compound I-532a, (S)-1,5-bis(trifluoromethyl)-N-(2-(2-(trifluoromethyl)pyridin-4-yl)-5,6-dihydro-4H-pyrrolo[1,2-b]pyrazol-4-yl)-1H-pyrazole-4-carboxamide]
21 | > 6.60 | O=C(N[C@H]1CCn2nc(-c3cc(C(F)(F)F)ncc3F)cc21)c1ccnc(OC(F)(F)F)c1 [Compound I-536a, (S)-N-(2-(5-Fluoro-2-(trifluoromethyl)pyridin-4-yl)-5,6-dihydro-4H-pyrrolo[1,2-b]pyrazol-4-yl)-2-(trifluoromethoxy)isonicotinamide]
22 | > 6.60 | Cn1nc(C(F)(F)F)cc1C(=O)N[C@H]1CCn2nc(-c3ccnc(C(C)(F)F)c3)cc21 [Compound I-537a, (S)-N-(2-(2-(1,1-Difluoroethyl)pyridin-4-yl)-5,6-dihydro-4H-pyrrolo[1,2-b]pyrazol-4-yl)-1-methyl-3-(trifluoromethyl)-1H-pyrazole-5-carboxamide]
23 | > 6.60 | CC(F)(F)c1cc(-c2cc3n(n2)CC[C@@H]3NC(=O)c2cnn(C(F)(F)F)c2)ccn1 [Compound I-538a, (S)-N-(2-(2-(1,1-Difluoroethyl)pyridin-4-yl)-5,6-dihydro-4H-pyrrolo[1,2-b]pyrazol-4-yl)-1-(trifluoromethyl)-1H-pyrazole-4-carboxamide]
24 | > 6.60 | O=C(N[C@H]1CCn2nc(-c3cc(C(F)(F)F)ncc3F)cc21)C12CC(CC(F)(F)F)(C1)C2 [Compound I-539a]
25 | > 6.60 | CCOc1cc(C(=O)N[C@H]2CCn3nc(-c4ccnc(C5CC5)c4)cc32)ccn1 [Compound I-541a, (S)-N-(2-(2-Cyclopropylpyridin-4-yl)-5,6-dihydro-4H-pyrrolo[1,2-b]pyrazol-4-yl)-2-ethoxyisonicotinamide]
26 | > 6.60 | CC(C)Oc1cc(C(=O)N[C@H]2CCn3nc(-c4ccnc(C5CC5)c4)cc32)ccn1 [Compound I-542a, (S)-N-(2-(2-Cyclopropylpyridin-4-yl)-5,6-dihydro-4H-pyrrolo[1,2-b]pyrazol-4-yl)-2-isopropoxyisonicotinamide]
27 | > 6.60 | CC(F)(F)c1cc(-c2nc3c(o2)CCC[C@@H]3NC(=O)c2cncc(F)c2)ccn1 [Compound I-544a, (S)—N-(2-(2-(1,1-difluoroethyl)pyridin-4-yl)-4,5,6,7-tetrahydrobenzo[d]oxazol-4-yl)-5-fluoronicotinamide]
28 | > 6.60 | CC(F)(F)c1cc(-c2nc3c(o2)CCC[C@@H]3NC(=O)c2cn(C(F)(F)F)nc2C(F)(F)F)ccn1 [Compound I-545a, (S)—N-(2-(2-(1,1-difluoroethyl)pyridin-4-yl)-4,5,6,7-tetrahydrobenzo[d]oxazol-4-yl)-1,3-bis(trifluoromethyl)-1H-pyrazole-4-carboxamide]
29 | > 6.60 | O=C(N[C@H]1CCn2nc(-c3cc(C(F)(F)F)ncc3F)cc21)c1ccnc(OC(F)F)c1 [Compound I-547a, (S)-2-(Difluoromethoxy)-N-(2-(5-fluoro-2-(trifluoromethyl)pyridin-4-yl)-5,6-dihydro-4H-pyrrolo[1,2-b]pyrazol-4-yl)isonicotinamide]
30 | > 6.60 | O=C(N[C@H]1CCn2nc(-c3cc(C(F)(F)F)ncc3F)cc21)c1ccn2nccc2c1 [Compound I-549a]
